Here are results for 3 compounds from patent publication US20130165679A1, “ALPHA-GLUCOSIDASE INHIBITOR” (priority 2011, published 2013).

Structures are written as SMILES. ≈ marks a conversion by molar mass, not a printed value. Like-named read-outs stand apart in the source and are kept apart here.

The test system of this assay is α-glucosidase. It counts as biochemical. To be noted: for IC50 (concentration to obtain 50% enzyme inhibitory activity): obtained by interpolation from inhibition rate data. As to the method: Examples of unsaturated fatty acid used to analyze its enzyme inhibitive activity as a α-glucosidase inhibitor include oleic acid (Ω9), linoleic acid (Ω6), and α-linolenic acid (Ω3).
In the analytical method, p-nitrophenyl-α-D-glucopyranoside was used as a substrate. The absorbance was measured by spectrophotometry to determine the α-glucosidase inhibition activity of samples (Apostolidis E. Lee C M. In vitro potential of Ascophyllum nodosam phenolic antioxidant-mediated alpha-glucosidase and alpha-amylase inhibition. Journal of Food Science 2010, 75:H97-102; Kang W Y, Song Y L, Zhang L. α-Glucosidase inhibitory and antioxidant properties and antidiabetic activity of Hypericum ascyron L. Medicinal Chemistry Research 2011.20:809-816).
To a 1.5 ml eppendorf tube containing 0.05 ml of sample solution (in 5% methanol), 0.1 ml of α-glucosidase solution (2 U/ml; in 100 mM phosphate buffer, pH 6.9) was added. The mixture was incubated in 37° C. water bath for 10 min, and then 0.05 ml of 5 mM p-nitrophenyl-α-D-glucopyranoside (in 100 mM phosphate buffer, pH 6.9) was added and mixed homogeneously. The mixture was incubated in 37° C. water bath for 10 min, and then in boiling water for 5 min to stop the reaction. After the addition of 1 ml of deionized water, the absorbance at 405 nm was measured by spectrophotometer (U-1800, Hitachi. Tokyo, Japan). • 1. Determining the α-glucosidase inhibition activity of oleic acid (as the α-glucosidase inhibitor): • A. Experimental group: enzyme+substrate+unsaturated fat acid (oleic acid) • B. Control: enzyme+substrate+buffer • C. Background: buffer+buffer+unsaturated fatty acid (oleic acid) • Calculation of the rate of inhibition:
Inhibition rate %=[ODControl−(ODExperimental group−ODBackground)]/ODControl×100%

Regarding `CCCCC/C=C\C/C=C\CCCCCCCC(=O)O` [linoleic acid], the “IC50 (concentration to obtain 50% enzyme inhibitory activity)” value is 33 µg/mL (≈ 118 µM). Moreover, the “Inhibition rate (%)” value (0.0125 mg/ml) is listed as 2.99 ± 0.36%. The “Inhibition rate (%)” value (0.0250 mg/ml) is 30.10 ± 0.54%. The “Inhibition rate (%)” value (0.0500 mg/ml) was 91.60 ± 0.62%.

For `CCCCCCCC/C=C\CCCCCCCC(=O)O` [oleic acid], the “IC50 (concentration to obtain 50% enzyme inhibitory activity)” value came out at 22 µg/mL (≈ 77.9 µM). Also, for the setting “0.01 mg/ml”, the “Inhibition rate (%)” value was 11.8 ± 0.99%. Moreover, the “Inhibition rate (%)” value (0.02 mg/ml) amounted to 52.2 ± 0.55%. In addition, the “Inhibition rate (%)” value (0.04 mg/ml) is recorded as 96.7 ± 0.06%.

Turning to `CC/C=C\C/C=C\C/C=C\CCCCCCCC(=O)O` [α-linolenic acid], the “IC50 (concentration to obtain 50% enzyme inhibitory activity)” value is 47 µg/mL (≈ 169 µM). Besides, under “0.04 mg/ml”, the “Inhibition rate (%)” value was found to be 31.6 ± 1.80%. Also, under “0.0500 mg/ml”, the “Inhibition rate (%)” value is on record as 57.5 ± 2.39%. Besides, where the note is “0.06 mg/ml”, the “Inhibition rate (%)” value is 81.0 ± 0.13%.
